{"source": "patent US20040253665A1", "about": "“Novel peptide-producing enzyme, microbe producing the enzyme and method for dipeptide synthesis using them” (AJINOMOTO CO., INC., priority 2002, published 2004)", "key": {"[1]": {"tested_on": "peptide-producing enzyme (Mono S fraction) from Empedobacter brevis strain FERM BP-8113", "experiment": "Enzyme inhibitors: effect on production of L-alanyl-L-glutamine", "type": "biochemical", "details": "for Inhibition of the enzyme (in words): serine enzyme inhibitors at 10 mM"}, "[2]": {"tested_on": "peptide-producing enzyme (Mono S fraction) from Empedobacter brevis strain FERM BP-8113", "experiment": "Enzyme substrate specificity (1)-(10), (13), (14)", "type": "biochemical", "design": "key: +: those for which production was confirmed but which were unable to be quantified due to the absence of a standard; a trace amount", "source_text": "Ester specificity was examined in the case of using L-amino acid ester for the carboxy component. […] The amounts of L-Ala-L-Gln produced in this reaction are shown in Table 4 (HCl represents hydrochloride in Table 4). Peptide production was examined in the case of using L-alanine methyl ester for the carboxy component and using various L-amino acids for the amine component. […] (The “+” mark indicates those peptides for which production was confirmed but which were unable to be quantified due to the absence of a standard, while “tr” indicates a trace amount.) Peptide production was examined in the case of using various types of L-amino acid methyl esters for the carboxy component and using L-glutamine for the amine component. […] Peptide production was examined in the case of using various L-amino acid methyl esters for the carboxy component and various L-amino acids for the amine component. […] (The “tr” indicates a trace amount.) Furthermore, Tween-80 was added to the reaction system to a final concentration of 0.1% in the case of using L-Trp-OMe. (The “+” mark indicates those peptides for which production was confirmed but which were unable to be quantified due to the absence of a standard.) […] (The “tr” indicates a trace amount.) Peptide production was examined using various L-amino acid amides for the carboxy component, and various L-amino acids for the amine component. […] Peptide production was examined in the case of using various L-alanine methyl esters for the carboxy component and C-protected L-amino acids for the amine component. […] Peptide production was examined in the case of using various amino acid methyl esters for the carboxy component and methylamine for the amine component. […] Peptide production was examined in the case of using β-amino acid ester for the carboxy component or β-amino acid for the amine component. […] (The “tr” indicates a trace amount.) Oligopeptide production was examined in the case of using L-amino acid ester for the carboxy component and peptide for the amine component. […] Substrate specificity was additionally assessed using the same enzyme fraction as that used in Example 5. […] (A “+” mark indicates those for which production was confirmed but which were unable to be quantified due to the absence of a standard, while “tr” indicates a trace amount). Substrate specificity with respect to oligopeptide production was assessed using the same enzyme fraction as Example 26. […] (A “+” mark indicates those for which production was confirmed but which were unable to be quantified due to the absence of a standard, while “tr” indicates a trace amount). It should be noted that hydrochlorides were used for all of the carboxy components."}, "[3]": {"tested_on": "enzyme (SP-Sepharose HP fraction) derived from Sphingobacterium sp. strain FERM BP-8124", "type": "biochemical", "details": "pH 9.0, 25° C.", "in_short": "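Purified enzyme (SP-Sepharose HP fraction, 0.33 units) reacted with carboxy components (100 mM, as hydrochlorides) and amine components (150 mM) in 100 mM borate buffer pH 9.0 with 10 mM EDTA. Reactions ran 1.5 h at 25 °C to assess peptide and oligopeptide formation.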"}, "[4]": {"tested_on": "peptide-producing enzyme (Mono S fraction) from Empedobacter brevis strain FERM BP-8113", "experiment": "Production of L-alanyl-L-glutamine from L-alanine methyl ester and L-glutamine with enzyme fraction", "type": "biochemical", "details": "for L-Ala-L-Gln: L-alanine methyl ester hydrochloride 100 mM, 18° C., 2 hours", "method": "On the other hand, there was hardly any production of L-Ala-L-Gln observed in an enzyme-non-added lot, and the […] was only about 0.07 mM after reacting for 120 minutes."}, "[5]": {"tested_on": "peptide-producing enzyme (Mono S fraction) from Empedobacter brevis strain FERM BP-8113", "experiment": "Enzyme substrate specificity (1)-(10), (13), (14)", "type": "biochemical", "details": "pH 9.0, 25° C., 3 hours", "in_short": "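Mono S-purified peptide-forming enzyme from Empedobacter brevis FERM BP-8113, given L-amino acid esters (hydrochlorides) or amides as carboxy component with amino acids, C-protected amino acids, methylamine, β-amino acids or peptides as amine component. Dipeptide/oligopeptide product quantified; Tween-80 0.1% added with L-Trp-OMe.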"}, "[6]": {"tested_on": "Empedobacter brevis strain FERM BP-8113 microbial cells", "experiment": "Production of peptide using microbial cells of Empedobacter brevis", "type": "cell-based", "details": "microbial cell suspension 100 g/L mixed 1:1 with 200 mM carboxy component and 400 mM amino acid, pH 9.0, 10 mM EDTA, 18° C., 2 hours", "method": "A 50 mL medium (pH 6.2) containing 5 grams (hereinafter, “g”) of glucose, 5 g of ammonium sulfate, 1 g of monopotassium phosphate, 3 g of dipotassium phosphate, 0.5 g of magnesium sulfate, 10 g of yeast extract and 10 g of peptone in 1 liter (hereinafter, “L”) was transferred to a 500 mL Sakaguchi flask and sterilized at 115° C. for 15 minutes. This medium,was then inoculated with one loopful of the culture broth of Empedobacter brevis strain FERM BP-8113 (Depositary institution: National Institute for Advanced Industrial Science and Technology, International Patent Organism Depositary, Address of depositary institution: Chuo Dai-6, 1-1 Higashi 1-Chome, Tsukuba-shi, Ibaraki-ken, Japan, International deposit transfer date: Jul. 8, 2002) that had been cultured at 30° C. for 16 hours in the same medium, followed by shake culturing at 30° C. for 16 hours and 120 strokes/min."}, "[7]": {"details": "inhibitor at 10 mM, pH 9.0, 25° C., 5 minutes, 100 = absence of enzyme inhibitor"}, "[8]": {"details": "oligopeptide production, amount of enzyme 0.2 units, pH 9.0, 25° C., 3 hours"}}, "note": "Non-standard residues stand in square brackets, D forms with d. Residues, ends and D or L forms follow the SMILES beside them. *: point of attachment. 2Nal = N[C@@H](Cc1ccc2ccccc2c1)C(=O)O; Cha = N[C@@H](CC1CCCCC1)C(=O)O; Boc = CC(C)(C)OC(=O)*", "data": [{"compound": "O=C(O)CN(CCN(CC(=O)O)CC(=O)O)CC(=O)O", "note": "[EDTA, ethylenediaminetetraacetic acid]", "values": [{"measurement": "Relative activity of L-Ala-L-Gln production (%)", "setting": "[1]; [7]", "result": 96, "unit": "%"}]}, {"compound": "C[C@H](N)C(=O)N[C@@H](Cc1ccc2ccccc2c1)C(=O)O", "note": "[H-Ala-2-Nal-OH] (H-Ala-[2Nal]-OH)", "values": [{"measurement": "Produced peptide (mM)", "setting": "[2]; carboxy component 20 mM, amine component 20 mM, 0.1 unit enzyme, 25° C., reaction time 3 hr", "result": "+"}]}, {"compound": "N[C@@H](CC1CCCCC1)C(=O)N[C@@H](Cc1ccccc1)C(=O)O", "note": "[H-CHA-Phe-OH] (H-[Cha]-Phe-OH)", "values": [{"measurement": "Produced peptide (mM)", "setting": "[2]; carboxy component 40 mM, amine component 40 mM, 0.1 unit enzyme, 25° C., reaction time 3 hr", "result": "+"}]}, {"compound": "CC(C)(C)OC(=O)NCCCC[C@H](N)C(=O)N[C@@H](CCC(N)=O)C(=O)O", "note": "[H-Lys(Boc)-Gln-OH] (H-Lys(Boc)-Gln-OH)", "values": [{"measurement": "Produced peptide (mM)", "setting": "[2]; carboxy component 100 mM, amine component 150 mM, 0.1 unit enzyme, 25° C., reaction time 2 hr", "result": "+"}]}, {"compound": "C[C@H](N)C(=O)N[C@@H](CCC(N)=O)C(=O)O", "note": "[L-Ala-L-Gln, L-alanyl-L-glutamine] (H-Ala-Gln-OH)", "values": [{"measurement": "L-alanyl-L-glutamine produced", "setting": "[3]; 10 μl SP-Sepharose HP fraction (about 27 U/ml) in 90 μl with 111 mM L-alanine methyl ester hydrochloride, 222 mM L-glutamine, 120 minutes, enzyme-added lot", "result": 73, "unit": "mM"}, {"measurement": "Produced peptide", "setting": "[3]; Table 15-4, amides or methylamine as components, 100 mM / 150 mM, 0.33 units enzyme, 1.5 hours", "result": 0.3, "unit": "mM"}, {"measurement": "L-alanyl-L-glutamine produced", "setting": "[4]; 3 μl enzyme fraction, 100 mM L-alanine methyl ester hydrochloride, 200 mM L-glutamine, pH 9.0, 18° C., enzyme-added lot (FIG. 3)", "result": 83, "unit": "mM"}, {"measurement": "L-Ala-L-Gln", "setting": "[4]; L-glutamine 100 mM", "result": 68.2, "unit": "mM"}, {"measurement": "L-Ala-L-Gln", "setting": "[4]; L-glutamine 110 mM", "result": 72.1, "unit": "mM"}, {"measurement": "L-Ala-L-Gln", "setting": "[4]; L-glutamine 120 mM", "result": 73.3, "unit": "mM"}, {"measurement": "L-Ala-L-Gln", "setting": "[4]; L-glutamine 130 mM", "result": 75.1, "unit": "mM"}, {"measurement": "L-Ala-L-Gln", "setting": "[4]; L-glutamine 150 mM", "result": 75.5, "unit": "mM"}, {"measurement": "L-Ala-L-Gln", "setting": "[4]; L-glutamine 200 mM", "result": 82.0, "unit": "mM"}, {"measurement": "Produced peptide", "setting": "[5]; 100 mM L-alanine methyl ester hydrochloride, L-amino acid 150 mM", "result": 79.3, "unit": "mM"}, {"measurement": "Produced peptide", "setting": "[5]; L-amino acid amide hydrochloride 100 mM as carboxy component, L-amino acid 150 mM", "result": 7.6, "unit": "mM"}, {"measurement": "Produced peptide", "setting": "[5]; L-amino acid methyl ester hydrochloride 100 mM, 150 mM L-glutamine", "result": 74.6, "unit": "mM"}, {"measurement": "Produced peptide", "setting": "[6]", "result": 68.0, "unit": "mM"}]}, {"compound": "O=C(O)CI", "note": "[Monoiodoacetate]", "values": [{"measurement": "Relative activity of L-Ala-L-Gln production (%)", "setting": "[1]; pH 9", "result": 101, "unit": "%"}]}, {"compound": "CCN1C(=O)C=CC1=O", "note": "[N-Ethyl maleimide]", "values": [{"measurement": "Relative activity of L-Ala-L-Gln production (%)", "setting": "[1]; [7]", "result": 110, "unit": "%"}]}, {"compound": "O=S(=O)(F)Cc1ccccc1", "note": "[Phenylmethylsulfonyl fluoride]", "values": [{"measurement": "Relative activity of L-Ala-L-Gln production (%)", "setting": "[1]; [7]", "result": 115, "unit": "%"}, {"measurement": "Inhibition of the enzyme (in words)", "setting": "[1]", "result": "not inhibited"}]}, {"compound": "c1cnc2c(c1)ccc1cccnc12", "note": "[o-Phenanthroline]", "values": [{"measurement": "Relative activity of L-Ala-L-Gln production (%)", "setting": "[1]; [7]", "result": 96, "unit": "%"}]}, {"compound": "N=C(N)Nc1ccc(C(=O)Oc2ccc([N+](=O)[O-])cc2)cc1", "note": "[p-Nitrophenyl-p′-guanidino benzoate, p-nitrophenyl-p′-guanidinobenzoate]", "values": [{"measurement": "Relative activity of L-Ala-L-Gln production (%)", "setting": "[1]; [7]", "result": 0.1, "unit": "%"}, {"measurement": "Inhibition of the enzyme (in words)", "setting": "[1]", "result": "inhibited"}]}, {"compound": "L-Ala-Gly-Gly-L-Phe-L-Met", "values": [{"measurement": "Produced peptide (mM)", "setting": "[2]; [8]", "result": "+"}]}, {"compound": "L-Ala-Gly-L-Phe", "values": [{"measurement": "Produced peptide (mM)", "setting": "[2]; oligopeptide production, amount of enzyme 0.1 units, pH 9.0, 25° C., 3 hours", "result": "+"}]}, {"compound": "L-Ala-L-Ala-L-Gln", "values": [{"measurement": "concentration of by-product", "setting": "[4]; 3 μl enzyme fraction, 100 mM L-alanine methyl ester hydrochloride, 200 mM L-glutamine, pH 9.0, 18° C., enzyme-added lot", "result": 1.3, "unit": "mM"}, {"measurement": "Produced peptide", "setting": "[5]; L-amino acid ester 100 mM, amino acid or peptide amine component 150 mM", "result": 15.2, "unit": "mM"}]}, {"compound": "L-Ala-L-Phe-L-Met", "values": [{"measurement": "Produced peptide (mM)", "setting": "[2]; [8]", "result": "+"}]}]}
